Results as given in PubChem BioAssay (NCI).
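Five compound concentrations were applied to cells in 96-well plates for 48 hours; endpoints were derived by simple linear interpolation of the resulting dose-response curve. TGI: total growth inhibition.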

What was measured:
Assay in all cases: NCI tumour cell line growth inhibition, 48 h
DMS 273 small cell lung = tested on: DMS 273 small cell lung
UACC-257 melanoma = tested on: UACC-257 melanoma
HCC-2998 colon = tested on: HCC-2998 colon
HOP-92 NSCLC = tested on: HOP-92 NSCLC
HOP-18 NSCLC = tested on: HOP-18 NSCLC
M14 melanoma = tested on: M14 melanoma
IGROV1 ovarian = tested on: IGROV1 ovarian
SNB-75 CNS = tested on: SNB-75 CNS
KM12 colon = tested on: KM12 colon
SR leukemia = tested on: SR leukemia
NCI-H23 lung = tested on: NCI-H23 lung
OVCAR-3 ovarian = tested on: OVCAR-3 ovarian
KM20L2 colon = tested on: KM20L2 colon
EKVX NSCLC = tested on: EKVX NSCLC
HOP-62 NSCLC = tested on: HOP-62 NSCLC
SF-539 CNS = tested on: SF-539 CNS
SNB-78 CNS = tested on: SNB-78 CNS
A549 NSCLC = tested on: A549 NSCLC
SNB-19 CNS = tested on: SNB-19 CNS
OVCAR-8 ovarian = tested on: OVCAR-8 ovarian
NCI-H226 lung = tested on: NCI-H226 lung
U251 CNS = tested on: U251 CNS
RXF 393 renal = tested on: RXF 393 renal
M19-MEL melanoma = tested on: M19-MEL melanoma
LXFL 529 NSCLC = tested on: LXFL 529 NSCLC
SK-MEL-2 melanoma = tested on: SK-MEL-2 melanoma
HCT-116 colon = tested on: HCT-116 colon
SK-MEL-5 melanoma = tested on: SK-MEL-5 melanoma
SK-MEL-28 melanoma = tested on: SK-MEL-28 melanoma
ACHN renal = tested on: ACHN renal
HL-60(TB) leukemia = tested on: HL-60(TB) leukemia
TK-10 renal = tested on: TK-10 renal
SF-268 CNS = tested on: SF-268 CNS
SW-620 colon = tested on: SW-620 colon
HCT-15 colon = tested on: HCT-15 colon
HT29 colon = tested on: HT29 colon
NCI-H460 lung = tested on: NCI-H460 lung
UO-31 renal = tested on: UO-31 renal
OVCAR-4 ovarian = tested on: OVCAR-4 ovarian
LOX IMVI melanoma = tested on: LOX IMVI melanoma
SN12C renal = tested on: SN12C renal
OVCAR-5 ovarian = tested on: OVCAR-5 ovarian
K-562 leukemia = tested on: K-562 leukemia
MOLT-4 leukemia = tested on: MOLT-4 leukemia
MALME-3M melanoma = tested on: MALME-3M melanoma
XF 498 CNS = tested on: XF 498 CNS
786-0 renal = tested on: 786-0 renal
SK-OV-3 ovarian = tested on: SK-OV-3 ovarian
DLD-1 colon = tested on: DLD-1 colon
NCI-H522 lung = tested on: NCI-H522 lung
UACC-62 melanoma = tested on: UACC-62 melanoma
SF-295 CNS = tested on: SF-295 CNS
COLO 205 colon = tested on: COLO 205 colon
CCRF-CEM leukemia = tested on: CCRF-CEM leukemia

## COc1cc(C2C(=O)C(Cl)N2Nc2nc(C)cc(=O)[nH]2)cc(OC)c1OC (stereo unspecified)
DMS 273 small cell lung
  TGI: 24.2 µM
UACC-257 melanoma
  TGI: > 100 µM
HCC-2998 colon
  TGI: 33 µM
HOP-92 NSCLC
  TGI: 37.3 µM
HOP-18 NSCLC
  TGI: 28.1 µM
M14 melanoma
  TGI: 26.5 µM
IGROV1 ovarian
  TGI: 35 µM
SNB-75 CNS
  TGI: 43.3 µM
KM12 colon
  TGI: 76.9 µM
SR leukemia
  TGI: 77.1 µM
NCI-H23 lung
  TGI: 50.3 µM
OVCAR-3 ovarian
  TGI: 45.1 µM
KM20L2 colon
  TGI: 66.5 µM
EKVX NSCLC
  TGI: > 100 µM
HOP-62 NSCLC
  TGI: > 100 µM
SF-539 CNS
  TGI: 35.1 µM
SNB-78 CNS
  TGI: 65.8 µM
A549 NSCLC
  TGI: > 100 µM
SNB-19 CNS
  TGI: > 100 µM
OVCAR-8 ovarian
  TGI: > 100 µM
NCI-H226 lung
  TGI: 62.6 µM
U251 CNS
  TGI: 36.3 µM
RXF 393 renal
  TGI: 26.4 µM
M19-MEL melanoma
  TGI: > 100 µM
LXFL 529 NSCLC
  TGI: 29.7 µM
SK-MEL-2 melanoma
  TGI: 25.2 µM
HCT-116 colon
  TGI: 49.7 µM
SK-MEL-5 melanoma
  TGI: 26.5 µM
SK-MEL-28 melanoma
  TGI: 49.6 µM
ACHN renal
  TGI: 68.5 µM
HL-60(TB) leukemia
  TGI: 33.7 µM
TK-10 renal
  TGI: > 100 µM
SF-268 CNS
  TGI: > 100 µM
SW-620 colon
  TGI: > 100 µM
HCT-15 colon
  TGI: 31.9 µM
HT29 colon
  TGI: 66.2 µM
NCI-H460 lung
  TGI: 21.9 µM
UO-31 renal
  TGI: 79.1 µM
OVCAR-4 ovarian
  TGI: 56.2 µM
LOX IMVI melanoma
  TGI: 27.5 µM
SN12C renal
  TGI: 53.1 µM
OVCAR-5 ovarian
  TGI: > 100 µM
K-562 leukemia
  TGI: 41.1 µM
MOLT-4 leukemia
  TGI: 39.9 µM

## COC(=O)C(c1ccc(OC)cc1)N1C(=O)[C@@H](NC(=O)c2ccccc2)[C@H]1[C@@H](C)O (stereo partly specified)
DMS 273 small cell lung
  TGI: > 100 µM
UACC-257 melanoma
  TGI: > 100 µM
HCC-2998 colon
  TGI: > 100 µM
MALME-3M melanoma
  TGI: > 100 µM
HOP-92 NSCLC
  TGI: > 100 µM
M14 melanoma
  TGI: > 100 µM
IGROV1 ovarian
  TGI: > 100 µM
SNB-75 CNS
  TGI: > 100 µM
KM12 colon
  TGI: > 100 µM
SR leukemia
  TGI: > 100 µM
NCI-H23 lung
  TGI: > 100 µM
OVCAR-3 ovarian
  TGI: > 100 µM
KM20L2 colon
  TGI: > 100 µM
EKVX NSCLC
  TGI: > 100 µM
XF 498 CNS
  TGI: > 100 µM
HOP-62 NSCLC
  TGI: > 100 µM
SF-539 CNS
  TGI: > 100 µM
SNB-78 CNS
  TGI: > 100 µM
786-0 renal
  TGI: > 100 µM
A549 NSCLC
  TGI: > 100 µM
SNB-19 CNS
  TGI: > 100 µM
OVCAR-8 ovarian
  TGI: > 100 µM
NCI-H226 lung
  TGI: > 100 µM
U251 CNS
  TGI: > 100 µM
SK-OV-3 ovarian
  TGI: > 100 µM
RXF 393 renal
  TGI: > 100 µM
M19-MEL melanoma
  TGI: > 100 µM
LXFL 529 NSCLC
  TGI: > 100 µM
DLD-1 colon
  TGI: > 100 µM
SK-MEL-2 melanoma
  TGI: > 100 µM
HCT-116 colon
  TGI: > 100 µM
SK-MEL-5 melanoma
  TGI: > 100 µM
SK-MEL-28 melanoma
  TGI: > 100 µM
ACHN renal
  TGI: > 100 µM
HL-60(TB) leukemia
  TGI: > 100 µM
TK-10 renal
  TGI: > 100 µM
SF-268 CNS
  TGI: > 100 µM
SW-620 colon
  TGI: > 100 µM
HCT-15 colon
  TGI: > 100 µM
NCI-H522 lung
  TGI: > 100 µM
HT29 colon
  TGI: > 100 µM
NCI-H460 lung
  TGI: > 100 µM
UO-31 renal
  TGI: > 100 µM
UACC-62 melanoma
  TGI: > 100 µM
OVCAR-4 ovarian
  TGI: > 100 µM
SF-295 CNS
  TGI: > 100 µM
LOX IMVI melanoma
  TGI: > 100 µM
SN12C renal
  TGI: > 100 µM
K-562 leukemia
  TGI: > 100 µM
COLO 205 colon
  TGI: > 100 µM
CCRF-CEM leukemia
  TGI: > 100 µM
MOLT-4 leukemia
  TGI: > 100 µM
